# According to patent publication US8440724B2, “Inhibiting neurotransmitter reuptake” (Mayo Foundation for Medical Education and Research, priority 2008, dated 2013):
# “Also recorded” adds a separate entry of the source. Where two headings read alike, the source gives them in different places.
# Legend:
# [1] = target: T1, human norepinephrine transporter (hNET) (Homo sapiens, UniProt P23975); experiment: Radioligand binding to cloned hNET, [3H]nisoxetine, HEK-293 cell membranes; settings: for Kd: Geometric Mean ± SEM, HCl salts, read-out: Equilibrium Dissociation Constant (KD) for Transporter Binding, hNET (N)
# T1 construct: expressed in transfected cells; host or cells: HEK-293, stably transfected
# T1 sequence (P23975 whole entry): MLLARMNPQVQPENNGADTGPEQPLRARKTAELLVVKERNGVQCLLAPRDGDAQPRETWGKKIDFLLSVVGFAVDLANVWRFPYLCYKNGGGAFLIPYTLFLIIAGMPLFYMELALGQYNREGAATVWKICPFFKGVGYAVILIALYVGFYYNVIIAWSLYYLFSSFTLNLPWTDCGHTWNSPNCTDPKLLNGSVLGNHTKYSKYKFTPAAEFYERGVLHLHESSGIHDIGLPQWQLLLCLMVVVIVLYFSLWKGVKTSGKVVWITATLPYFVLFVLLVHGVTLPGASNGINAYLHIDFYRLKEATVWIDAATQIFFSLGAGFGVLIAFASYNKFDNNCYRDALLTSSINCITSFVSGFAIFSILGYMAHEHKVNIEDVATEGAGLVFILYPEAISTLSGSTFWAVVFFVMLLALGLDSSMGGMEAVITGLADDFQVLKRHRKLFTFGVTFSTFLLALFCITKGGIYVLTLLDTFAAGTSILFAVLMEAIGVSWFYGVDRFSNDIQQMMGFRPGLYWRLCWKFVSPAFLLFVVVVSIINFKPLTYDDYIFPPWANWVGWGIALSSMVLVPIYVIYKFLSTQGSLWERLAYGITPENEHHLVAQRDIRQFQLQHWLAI
# Protocol: (§1) HEK-293 cells expressing the recombinant hSERT or hDAT were incubated with Dulbecco's modified Eagles medium (MEM) supplemented with 0.1 mM nonessential amino acid solution for MEM, 5% v/v fetal bovine serum and 1 U/mL penicillin/streptomycin solution. Cells expressing the hNET transporter were incubated with Dulbecco's modified Eagles medium supplemented with 10% v/v fetal bovine serum and 100 U/mL penicillin/streptomycin solution and 2 mM L-glutamine. The cells were grown until 70-80% confluent on 175 cm^2 flasks in a humidified 10% CO2/90% air environment at 37° C., with the selecting antibiotic Geneticin sulfate at 250 μg/mL. The cells were incubated in 10% CO2, 90% air at 37° C. and 100% humidity.
# (§2) Cell membranes containing hSERT, hNET, or hDAT were prepared from the cell lines to assay ligand binding for each of the transporters. […] The washed cells were incubated for 5 minutes at 37° C. in 10 mL solution 1 containing 100 mM ethylene glycol-bis N,N,N′,N′-tetraacetic acid (EGTA). The cells were then scraped from the flask surface with a rubber spatula, placed into a centrifuge tube, and collected by centrifugation at 1000×g for 5 minutes at 4° C. The resulting supernatant was discarded, and the cell pellet was resuspended in 0.5 to1.0 mL of the appropriate binding buffer (described below). The resuspended cell pellet was homogenized using a Polytron for 10 seconds at setting 6. The resulting homogenate was centrifuged at about 36,000×g for 10 minutes at 4° C. The supernatant was discarded, and the pellet was resuspended in the same volume of the appropriate binding buffer and centrifuged again. The supernatant was discarded, and the final pellet containing cell membranes was resuspended in the appropriate binding buffer and stored at −80° C. until use.
# To assess binding to the cloned hNET, cells expressing hNET were homogenized in 50 mM Tris-HCl with 300 mM NaCl and 5 mM KCl (pH 7.4). The binding reaction consisted of 5 μg cell membrane protein, 0.5 nM [^3H]nisoxetine (nisoxetine HCl, [N-methyl-^3H], specific activity 82.0 Ci/mmol; Amersham, Arlington Hts., Ill.), and varying concentrations of either unlabeled nisoxetine or the test compound. A reaction to determine non-specific binding consisted of 5 μg cell membrane protein, 0.5 nM [^3H]nisoxetine, and 1 μM final concentration of unlabeled nisoxetine. The reactions were incubated at 22° C. for 60 minutes. Following incubation, the reactions were terminated by rapid filtration through separate GF/B filter strips pretreated with 0.2% polyethylenimine in a 48-well Brandel cell harvester. The cell membrane-containing filter strips were then rinsed five times with ice-cold 0.9% NaCl. After rinsing, individual filters were cut from the strip and placed in a scintillation vial containing 6.5 mL of Redi-Safe (Beckman-Coulter, Fullerton, Calif.).
# (§3) The program was modified to calculate the Hill coefficient (nH). Data are presented as geometric mean±S.E.M. of at least three independent experiments. One-component models and two-component models were compared using the root mean square error of each fit and the F test.
# [2] = target: T2, human dopamine transporter (hDAT) (Homo sapiens, UniProt Q01959); experiment: Radioligand binding to cloned hDAT, [3H]WIN35428, HEK-293 cell membranes; settings: for Binding at hDAT compared to PRC200-SS: in words
# T2 construct: expressed in transfected cells; host or cells: HEK-293, stably transfected
# T2 sequence (Q01959 whole entry): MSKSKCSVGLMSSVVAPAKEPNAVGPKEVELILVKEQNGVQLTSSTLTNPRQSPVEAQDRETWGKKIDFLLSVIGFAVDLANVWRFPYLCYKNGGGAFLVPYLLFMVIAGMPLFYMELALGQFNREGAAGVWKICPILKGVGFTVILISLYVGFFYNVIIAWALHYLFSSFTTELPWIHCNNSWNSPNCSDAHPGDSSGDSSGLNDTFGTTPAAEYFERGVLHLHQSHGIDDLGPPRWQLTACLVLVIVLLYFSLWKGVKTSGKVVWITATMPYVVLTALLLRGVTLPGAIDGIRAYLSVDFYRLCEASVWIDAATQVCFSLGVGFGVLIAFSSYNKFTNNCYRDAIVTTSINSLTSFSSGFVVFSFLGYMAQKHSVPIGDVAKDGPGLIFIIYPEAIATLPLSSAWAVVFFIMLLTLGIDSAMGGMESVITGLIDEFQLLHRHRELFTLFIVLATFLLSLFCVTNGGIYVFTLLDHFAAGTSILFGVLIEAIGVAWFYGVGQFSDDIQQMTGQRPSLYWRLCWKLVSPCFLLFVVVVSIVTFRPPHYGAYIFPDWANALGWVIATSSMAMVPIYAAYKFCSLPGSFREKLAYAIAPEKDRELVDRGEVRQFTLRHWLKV
# Protocol: as §1, §2
# To assess binding to the cloned hDAT, cells expressing hDAT were homogenized in 50 mM Tris-HCl with 120 mM NaCl (pH 7.4). The binding reaction contained 15 μg cell membrane protein, 1 nM [^3H]WIN35428 (WIN35428, [N-methyl-^3H], specific activity 85.9 Ci/mmol; PerkinElmer, Boston, Mass.), and varying concentrations of either unlabeled WIN35428 or the test compound. A reaction to determine non-specific binding contained 15 μg cell membrane protein, 1 nM [^3H]WIN35428, and 10 μM final concentration of unlabeled WIN35428. The reactions were incubated at 22° C. for 1 hour. Following incubation, the reactions were terminated by rapid filtration through separate GF/B filter strips pretreated with 0.2% polyethylenimine in a 48-well Brandel cell harvester. The cell membrane-containing filter strips were then rinsed five times with ice-cold 0.9% NaCl. After rinsing, individual filters were cut from the strip and placed in a scintillation vial containing 6.5 mL of Redi-Safe (Beckman-Coulter, Fullerton, Calif.).
# as §3
# [3] = target: T3, human serotonin transporter (hSERT) (Homo sapiens, UniProt P31645); experiment: Radioligand binding to cloned hSERT, [3H]citalopram, HEK-293 cell membranes; settings: for Kd: Geometric Mean ± SEM, HCl salts, read-out: Equilibrium Dissociation Constant (KD) for Transporter Binding, hSERT (S); for Binding at hSERT compared to PRC200-SS: in words
# T3 construct: expressed in transfected cells; host or cells: HEK-293, stably transfected
# T3 sequence (P31645 whole entry): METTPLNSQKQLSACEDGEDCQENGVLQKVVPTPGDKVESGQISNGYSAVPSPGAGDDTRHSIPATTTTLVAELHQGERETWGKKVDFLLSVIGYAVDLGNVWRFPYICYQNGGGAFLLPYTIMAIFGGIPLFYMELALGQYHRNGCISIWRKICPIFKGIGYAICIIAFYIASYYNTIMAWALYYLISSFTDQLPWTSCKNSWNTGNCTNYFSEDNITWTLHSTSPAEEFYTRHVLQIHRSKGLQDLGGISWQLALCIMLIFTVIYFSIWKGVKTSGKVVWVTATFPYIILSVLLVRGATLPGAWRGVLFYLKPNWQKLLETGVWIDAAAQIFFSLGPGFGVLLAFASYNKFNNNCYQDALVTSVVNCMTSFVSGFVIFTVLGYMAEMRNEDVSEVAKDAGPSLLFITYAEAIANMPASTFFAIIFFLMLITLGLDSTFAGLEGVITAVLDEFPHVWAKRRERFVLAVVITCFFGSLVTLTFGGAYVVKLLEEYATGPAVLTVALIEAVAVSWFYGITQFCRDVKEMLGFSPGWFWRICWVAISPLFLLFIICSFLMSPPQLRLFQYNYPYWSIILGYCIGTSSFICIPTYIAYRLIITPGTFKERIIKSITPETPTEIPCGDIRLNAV
# Protocol: as §1, §2
# Radioligand binding assays for the indicated transporters were performed as follows. To assess binding to the cloned hSERT, cells expressing hSERT were homogenized in 50 mM Tris-HCl with 120 mM NaCl and 5 mM KCl (pH 7.4). The binding reaction consisted of 10 μg cell membrane protein, […] [^3H]citalopram (citalopram, [N-methyl-^3H], specific activity 79.0 Ci/mmol; PerkinElmer, Boston, Mass.), and varying concentrations of either unlabeled citalopram or the test compound. A reaction to determine non-specific binding consisted of 10 μg cell membrane protein, 0.5 nM [^3H]citalopram, and 1 μM final concentration of unlabeled citalopram. The reactions were incubated at 22° C. for 60 minutes. Following incubation, the reactions were terminated by rapid filtration through separate GF/B filter strips pretreated with 0.2% polyethylenimine in a 48-well Brandel cell harvester. The cell membrane-containing filter strips were then rinsed five times with ice-cold 0.9% NaCl. After rinsing, individual filters were cut from the strip and placed in a scintillation vial containing 6.5 mL of Redi-Safe (Beckman-Coulter, Fullerton, Calif.).
# as §3
# [4] = tested on: hSERT, hNET, hDAT; experiment: Human transporter binding: rank order and range of potency over the three transporters; settings: for Potency (rank-order of potency of binding; S = hSERT, N = hNET, D = hDAT): from KD values; for Potency Range (difference between most potent and least potent binding): ratio of KD over hSERT, hNET, hDAT
# Source text: as §3
# [5] = Geometric Mean ± SEM, HCl salts, read-out: Equilibrium Dissociation Constant (KD) for Transporter Binding, hDAT (D)
SMILES,Kd [1] [nM],"Kd [2, 5] [nM]",Kd [3] [nM],"Potency (rank-order of potency of binding; S = hSERT, N = hNET, D = hDAT) [4]",Potency Range (difference between most potent and least potent binding) [4] [fold],Kd [2] [nM],Binding at hDAT compared to PRC200-SS [2],Binding at hSERT compared to PRC200-SS [3],Binding at hNET compared to PRC200-SS ([1]; in words),Binding at hSERT compared to PRC200-SS ([3]; listed as MCJ001-NH2-cyc-SS),"Potency (rank-order of potency of binding; S = hSERT, N = hNET, D = hDAT) ([4]; listed as MCJ001-NH2-cyc-SS)"
"CNC[C@H](c1ccc2ccccc2c1)[C@@H](N)c1ccccc1 [MCJ001-NH2-RS, (2S,3R)-N1-methyl-2-(naphthalen-2-yl)-3-phenylpropane-1,3-diamine]",78 ± 4,380 ± 30,100 ± 7,N > S > D,4.9,,,,,,
"CNC[C@@H](c1ccc2ccccc2c1)[C@@H](F)c1ccccc1 [MCJ001-F-RR, (2R,3R)-3-fluoro-N-methyl-2-(naphthalen-2-yl)-3-phenylpropan-1-amine]",170 ± 10,,16 ± 1,S > D > N,11,150 ± 9,,,,,
"CNC[C@H](c1ccc2ccccc2c1)[C@H](OCCCCO[C@H](c1ccccc1)[C@H](CNC)c1ccc2ccccc2c1)c1ccccc1 [MCJ001-Dimer4-SS, (2S,2′S,3S,3′S)-3,3′-(butane-1,4-diylbis(oxy))bis(N-methyl-2-(naphthalen-2-yl)-3-phenylpropan-1-amine)]",259 ± 5,240 ± 1,94 ± 10,S > D > N,2.8,,,,,,
"CNCC[C@H](Oc1cccc2ccccc12)c1cccs1 [Duloxetine, reference compound]",,,,S > N > D,,,,,,,
"C[N+]1(C)CN[C@H](c2ccccc2)[C@@H](c2ccc3ccccc3c2)C1.[Cl-] [MCJ002-NH2-Cyc-SS, (4S,5S)-1,1-dimethyl-5-(naphthalen-2-yl)-4-phenylhexahydropyrimidin-1-ium chloride]",100 ± 10,,1.9 ± 0.2,S > D > N,53,18 ± 2,Enhanced binding to hDAT,greater binding at hSERT,,,
"CNC[C@@H](c1ccc2ccccc2c1)[C@@H](N)c1ccccc1 (racemic) [MCJ001-NH2-(±)-RR, (2R,3R)-N1-methyl-2-(naphthalen-2-yl)-3-phenylpropane-1,3-diamine]",2.5 ± 0.1,,1.27 ± 0.06,S > N > D,22,28 ± 4,,greater binding at hSERT,,,
"CNC[C@@H](c1ccc2ccccc2c1)[C@@H](Cl)c1ccccc1 [MCJ001-Cl-RR, (2R,3R)-3-chloro-N-methyl-2-(naphthalen-2-yl)-3-phenylpropan-1-amine]",234 ± 5,290 ± 20,35 ± 2,S > N > D,8.3,,,,,,
"CN1CO[C@@H](c2ccccc2)[C@H](c2ccc3ccccc3c2)C1 [MCJ001-OH-Cyc-RR, (5R,6R)-3-methyl-5-(naphthalen-2-yl)-6-phenyl-1,3-oxazinane]",460 ± 50,180 ± 20,240 ± 20,D > S > N,2.6,,,,,,
"CNC[C@@H](c1ccc2ccccc2c1)[C@H](Cl)c1ccccc1 [MCJ001-Cl-SR, (2R,3S)-3-chloro-N-methyl-2-(naphthalen-2-yl)-3-phenylpropan-1-amine]",700 ± 50,350 ± 20,55 ± 5,S > D > N,13,,,,,,
"CCOc1ccccc1OC(c1ccccc1)C1CNCCO1 (stereo not shown) [Reboxetine, reference compound]",,,,N > S > D,,,,,,,
"CN1CN[C@H](c2ccccc2)[C@@H](c2ccc3ccccc3c2)C1 [MCJ001-NH2-Cyc-SS, (4S,5S)-1-methyl-5-(naphthalen-2-yl)-4-phenylhexahydropyrimidine]",13 ± 1,,0.26 ± 0.02,S>D>N,50,7.7 ± 0.6,several fold enhanced potency at binding to hDAT; also recorded: several fold more potent binding at hDAT,markedly enhanced potency at binding to hSERT,lower potency of binding to hNET,greater binding at hSERT,S > D > N
"CCN(CC)C(=O)C1(c2ccccc2)CC1CN (stereo not shown) [Milnacipran, reference compound]",,,,S > N > D,,,,,,,
"c1ccc([C@H]2OCNC[C@@H]2c2ccc3ccccc3c2)cc1 [MCJ000-OH-Cyc-SS, (5S,6S)-5-(naphthalen-2-yl)-6-phenyl-1,3-oxazinane]",99 ± 6,330 ± 50,8 ± 1,S > D > N,41,,,,,,
